Measured values: US6930091B2, “Peptides and remedy for bone diseases containing the same as active ingredient” (priority 1995, dated 2005)
Where no end group is shown, it is not given here.

System: ddy male mice
Settings: mouse, in vivo, iv
Method: By using the peptide prepared in Example 1, its acute toxicity was tested on ddy male mice (with the body weight ranging from 40 to 45 g). The present peptide was dissolved in a physiological saline (pH 6.0) and the solution thereof was administered intravenously into a vein in the tail of each mouse, and observation was made for 14 days. The dosage amount was set respectively at 1, 10, and 100 μg/kg.

## KLTTIFPLNWKYRKAL [Example 1, Lys Leu Thr Thr Ile Phe Pro Leu Asn Trp Lys Tyr Arg Lys Ala Leu]
  Deceased mice (in words): not deceased mouse observed
  Number of Deceased Mice: 0/5
